{
  "source": "patent US9724337B2",
  "about": "“AG-205 for the treatment of breast cancer” (University of Kentucky Research Foundation, priority 2009, dated 2017)",
  "key": {"[1]": {"test_system": "MDA-MB-468 cells", "assay": "Viability / proliferation of MDA-MB-468 cells", "type": "cell-based, human", "conditions": "MDA-MB-468 cells, increasing doses of AG1478, MTT assay", "procedure": "(§1) Tissue culture. MDA-MB-468 cells were a kind gift from Dr. Rina Plattner of the University of Kentucky and were maintained in medium consisting of Dulbecco's Modified Eagle Medium containing 10% serum supreme (Fisher) and antibiotics. Cells were grown at 37° C. in 5% CO2 in air. A549 and HCC827 lung cancer cells, as well as SK-Br-3 breast cancer cells were obtained from the ATCC (American Type Culture Collection) and were grown under the same conditions. The H1650 lung cancer cell line was a kind gift from Dr. Heinz Kohler of the University of Kentucky. The Pgrmc1 ligand AG-205 was purchased from Timtec, Inc. The EGFR inhibitor AG1478 was from Biomol, Inc. and was used at a concentration range of 0.8-40 μM.\n(§2) Proliferation, anchorage-independent growth and migration assays. For growth curves, cells were plated in 24 well dishes and grown in 10% serum-containing medium. At various times, the cells were harvested with trypsin and fixed with formaldehyde added to a final concentration of 3.7%. Following the harvest of the final time point, the cells from each time point were counted using a Bright-line hemocytometer (Hausser Scientific).\n(§3) MTT viability assays were performed as described previously. Briefly, cells were plated in 96-well tissue culture dishes and grown in various media with different drug doses. The cells were then incubated with 0.5 mg/ml of 3-[4,5-dimethylthiazol-2-y]-2,5-diphenyltetrazolium bromide for 1.5 hours, at which time the media was removed, the precipitated crystals were dissolved in dimethyl sulfoxide, and the absorbance at 590 nm was measured using a Bio-Tek μQuant spectrophotometer."}, "[2]": {"test_system": "A549 cells", "assay": "Viability of A549 cells", "type": "cell-based, human", "conditions": "A549 cells, single agent", "procedure": "(A) Pgrmc1 (SEQ ID NO: 7) shares homology with AtMAPR2 (SEQ ID NO: 8) (underlined residues), which was the target for a screen for small molecule ligands. The putative heme-binding Tyr106 and Tyr112 are indicated with black boxes. (B) The molecular structure of AG-205 includes multiple aromatic components. (C) Spectroscopic scan of Pgrmc1 with vehicle control compared with vehicle plus 50 µM AG-205. The decrease in relative absorbance at 400 nm is consistent with an AG-205-induced change in the spectral properties of Pgrmc1-heme. The scan is representative of four separate scans using different Pgrmc1 protein preparations. The lower scan is a comparison of purified Pgrmc1 without and with the vehicle control (DMSO). Panels D (A549 cells) and E (MDA-MB-231 cells) are viability assays of cells maintained in 0.1% serum (solid line) or 10% serum (dashed line) and treated with increasing doses of AG-205. Percent viability was determined by cell counting, and “% viability” refers to the cell number relative to the untreated control.\nas §1, §2, §3"}},
  "data": [
    {"smiles": "COc1cc2ncnc(Nc3cccc(Cl)c3)c2cc1OC", "note": "[AG1478, reference compound]", "values": [
      {"measurement": "change in proliferation rate between siCON and siPGR-transfected cells", "setting": "[1]", "result": "largely blocked"},
      {"measurement": "decrease in viability / cells killed", "setting": "[2]", "result": 25, "unit": "%"}
    ]}
  ]
}
